# Columns and labels:
# caspases 3 and 9 = test: Western analysis of caspases in CNS tissue of EAE mice; assay type: in vivo
# Description: FIGS. 7A-B—Densitometry of bands from western analysis of brain tissue proteins isolated from HDAC inhibitor-treated and vehicle-treated mice. […] Activated caspase 9 is decreased by oral sodium phenylbutyrate (SPB) and by intraperitoneal TSA. Both findings correlate with clinical improvement in these animal models.
# Mechanisms of protection by HDAC inhibitors. (1) Decreased caspase activation leading to enhanced neuronal survival. […] Caspase 3 is known to be activated in rat EAE spinal cords (Ahmed et al., 2002), and correlates with retinal ganglion cell loss and optic neuritis-related disability (Meyer et al., 2001). Neuronal overexpression of the anti-caspase factor Bcl-2 ameliorates EAE (Offen et al., 2000). Caspase 3 also has the ability to modulate Bcl2 and activate upstream caspases triggered by Fas (Woo et al., 1999), an apoptotic pathway implicated in EAE (Sabelko et al., 1997). Finally, CNS activation of caspases has been implicated in the progression of Alzheimer's disease (AD) (Pompl et al., 2003). Thus, the inventor proposes that blockade of neuronal caspase activation is a mechanism by which HDAC inhibitors ameliorate neuronal death in these disorders (EAE, ALS and AD).
# ras transformed cells = conditions: cited from earlier work
# [1] = tested on: spleen tissue from EAE mice; test: Quantitative RT-PCR on spleen tissue of EAE mice; assay type: in vivo; conditions: TSA-treated EAE mice
# Procedure: (§1) FIG. 8—Identification of gene expression changes induced by HDAC inhibitors in vivo, using reverse transcriptase polymerase chain reaction (RT-PCR). CNS and spleen tissue samples from EAE mice were used to isolate RNA. One step real time quantitative RT-PCR (QRT-PCR) was then performed in triplicate for each sample (n=3 per group of mice) with SYBR Green and an ABI Prism 7700 Sequence Detection System (PE Applied Biosystems, Foster City, Calif.).
# (§2) d) Quantitative RT-PCR (QRT-PCR) on CNS and spleen tissues from TSA-treated EAE mice detects numerous genes modulated by this HDAC inhibitor. […] QRT-PCR unveiled new CNS effects of TSA (FIG. 8), including upregulation of the neuronal trait genes sodium channel Nav1.2 and dopamine β hydroxylase (Dbh), and downregulation of the pro-apoptotic factors caspase 2 (casp2) and apoptosis inducing factor (Aif). In spleen tissues, QRT-PCR confirmed elevation of Ifna7 and Adipsin and downregulation of Igκ V22 mRNAs, and unveiled downregulation by TSA of multiple inflammatory factors, such as IL-8 receptor, IL-2 receptor, IL-12, and the costimulatory molecule CD28, from pathways implicated in MS (Glabinsk and Ransohoff, 2001; Dangond, 2002).
# EAE mice spleens = test: DNA microarray analysis of EAE mice spleens; assay type: in vivo
# Description: (2) Modulation of genes involved in neuroprotection and immune regulation by TSA. a) Microarrays detect protective genes regulated by TSA in EAE mice spinal cords. The inventor pooled RNA from tissues of three animals in each group (TSA treated and vehicle-treated) for DNA microarray analysis. As shown (Table 3), intraperitoneal TSA led to the enhanced expression of mRNAs for the antioxidant glutathione peroxidase (Gpx1) and the neuroprotective insulin-like growth factor 2 (Igf2). […] Intraperitoneal TSA also led to decreased expression in EAE spinal cords of the chemokine receptor CCR6, immunoglobulin V(H)II, the vascular homeostasis-related phospholipase A2, and upregulation of the immunomodulatory factor interferon-α2 (Ifna2), the latter with known beneficial effects in MS patients.
# b) Microarrays detect protective genes regulated by TSA in EAE mice spleens. The inventor had previously shown that HDAC mRNAs are elevated in immune cells after stimulation with mitogens or α-CD3 Ab (Dangond et al., 1998) and that HDAC inhibitors block proliferation (Dangond and Gullans, 1998). HDAC inhibition also downregulates pro-inflammatory molecules, including γ-IFN (Dangond and Gullans, 1998), IL-12 (Saemann et al., 2000), IL-12 receptor (Saemann et al., 2000), B7-1 (Bohmig et al., 1997) and TNF-α (Nancey et al., 2002). […] A known histone deacetylase-binding chaperone, 14-3-3 sigma, is also elevated in spleens.
# Microarrays detect protective genes co-regulated by TSA in EAE mice spinal cords and spleens.
# mouse model = conditions: cited from earlier work
# CNS tissue from EAE mice = test: Quantitative RT-PCR on CNS tissue of EAE mice; assay type: in vivo
# Procedure: as §1, §2
smiles,measurement,setting,value
"CC(/C=C/C(=O)NO)=C\[C@@H](C)C(=O)c1ccc(N(C)C)cc1 [TSA, Trichostatin A]","Activated caspase 9, densitometry of western bands, brain tissue",caspases 3 and 9; intraperitoneal TSA vs vehicle-treated mice,decreased
same,activation of caspases 3 and 9 in CNS tissue,"caspases 3 and 9; intraperitoneal TSA, MS (EAE) mice, western analysis",decreased activation of caspases 3 and 9
same,hyperacetylation,ras transformed cells,induce hyperacetylation
same,morphology of ras transformed cells,ras transformed cells,reversion of ras transformed cells to normal morphology
same,Adipsin mRNA by QRT-PCR,[1],elevation
same,CD28 mRNA by QRT-PCR,[1],downregulation
same,IL-2 receptor mRNA by QRT-PCR,[1],downregulation
same,IL-8 receptor mRNA by QRT-PCR,[1],downregulation
same,IL-12 mRNA by QRT-PCR,[1],downregulation
same,Ifna7 mRNA by QRT-PCR,[1],elevation
same,Igκ V22 mRNA by QRT-PCR,[1],downregulation
same,"Fold Δ Spleen, Paired box gene 4 (Pax4)","EAE mice spleens; Table 5, probe set AB010557, i.p. TSA, EAE mice spleen",−2.4 fold
same,"Fold Δ Spleen, Axin","EAE mice spleens; Table 5, probe set AF009011, i.p. TSA, EAE mice spleen",2.1 fold
same,"Fold Δ Spleen, DNA methyltransferase (Dnmt1)","EAE mice spleens; Table 5, probe set AF036008, i.p. TSA, EAE mice spleen",−3.2 fold
same,"Fold Δ Spleen, Metaxin homolog","EAE mice spleens; Table 5, probe set AV108173, i.p. TSA, EAE mice spleen",−4 fold
same,"Fold Δ Spleen, Thromboxane A2 receptor (Tbxa2r)","EAE mice spleens; Table 5, probe set D10849, i.p. TSA, EAE mice spleen",−4.9 fold
same,"Fold Δ Spleen, Growth differentiation factor (Gdf9)","EAE mice spleens; Table 5, probe set L06444, i.p. TSA, EAE mice spleen",5.4 fold
same,"Fold Δ Spleen, Neurofilament heavy (Nefh)","EAE mice spleens; Table 5, probe set M35131, i.p. TSA, EAE mice spleen",2.2 fold
same,"Fold Δ Spleen, Snail homolog 1 (Snail1)","EAE mice spleens; Table 5, probe set M95604, i.p. TSA, EAE mice spleen",2.9 fold
same,"Fold Δ Spleen, Dishevelled 2 (Dvl2)","EAE mice spleens; Table 5, probe set U24160, i.p. TSA, EAE mice spleen",−3.6 fold
same,"Fold Δ Spleen, Rearranged in lymphoma (Frat1)","EAE mice spleens; Table 5, probe set U58974, i.p. TSA, EAE mice spleen",5.4 fold
same,"Fold Δ Spleen, Immunoglobulin H and L variable","EAE mice spleens; Table 5, probe set U62386, i.p. TSA, EAE mice spleen",−2.5 fold
same,"Fold Δ Spleen, Cyclin D-interacting Dmp1 (Dmtf1)","EAE mice spleens; Table 5, probe set U70017, i.p. TSA, EAE mice spleen",5.2 fold
same,"Fold Δ Spleen, Neuronal PAS domain 1 (Npas1)","EAE mice spleens; Table 5, probe set U77967, i.p. TSA, EAE mice spleen",−3.5 fold
same,"Fold Δ Spleen, Phospholipase C-beta-1b (Picb1)","EAE mice spleens; Table 5, probe set U85714, i.p. TSA, EAE mice spleen",3.7 fold
same,"Fold Δ Spleen, Glutathione peroxidase (Gpx1)","EAE mice spleens; Table 5, probe set X03920, i.p. TSA, EAE mice spleen",2.3 fold
same,"Fold Δ Spleen, Immunoglobulin kappa chain (1gk-V20)","EAE mice spleens; Table 5, probe set X16678, i.p. TSA, EAE mice spleen",−2.3 fold
same,"Fold Δ Spleen, Paired box gene 2 (Pax2)","EAE mice spleens; Table 5, probe set X55781, i.p. TSA, EAE mice spleen",2.1 fold
same,"Fold Δ Spleen, Max binding protein ROX (Mnt)","EAE mice spleens; Table 5, probe set Y07609, i.p. TSA, EAE mice spleen",−3.5 fold
same,"Fold Change, 14-3-3 sigma","EAE mice spleens; probe set 96704, spleen, I.P. TSA vs vehicle-treated EAE mice",3.9 fold
same,"Fold Change, Parvalbumin (Pva)","EAE mice spleens; probe set 96719, spleen, I.P. TSA vs vehicle-treated EAE mice",6.3 fold
same,"Fold Change, IgH variable","EAE mice spleens; probe set 96970, spleen, I.P. TSA vs vehicle-treated EAE mice",−3.9 fold
same,"Fold Change, Igκ-V22","EAE mice spleens; probe set 97570, spleen, I.P. TSA vs vehicle-treated EAE mice",−4.4 fold
same,"Fold Change, IgA VDJH","EAE mice spleens; probe set 99420, spleen, I.P. TSA vs vehicle-treated EAE mice",−2.8 fold
same,"Fold Change, Adipsin (Adn)","EAE mice spleens; probe set 99671, spleen, I.P. TSA vs vehicle-treated EAE mice",9.0 fold
same,"Fold Change, Galanin receptor 1 (Galr1)","EAE mice spleens; probe set 99837, spleen, I.P. TSA vs vehicle-treated EAE mice",−4.2 fold
same,"Fold Change, IgE H constant","EAE mice spleens; probe set 99850, spleen, I.P. TSA vs vehicle-treated EAE mice",−3.1 fold
same,"Fold Change, Kallikrein (Klk)","EAE mice spleens; probe set 100060, spleen, I.P. TSA vs vehicle-treated EAE mice",2.8 fold
same,"Fold Change, Lactotransferrin (Ltf)","EAE mice spleens; probe set 101115, spleen, I.P. TSA vs vehicle-treated EAE mice",−8.2 fold
same,"Fold Change, IgG rearranged κ","EAE mice spleens; probe set 101616, spleen, I.P. TSA vs vehicle-treated EAE mice",−4.5 fold
same,"Fold Change, IgG variable","EAE mice spleens; probe set 101752, spleen, I.P. TSA vs vehicle-treated EAE mice",−8.2 fold
same,"Fold Change, V kappa and J kappa coding joint","EAE mice spleens; probe set 101826, spleen, I.P. TSA vs vehicle-treated EAE mice",−4.2 fold
same,"Fold Change, γ-1 Ig Constant","EAE mice spleens; probe set 101870, spleen, I.P. TSA vs vehicle-treated EAE mice",−5.0 fold
same,"Fold Change, Interferon alpha 7 (Ifna7)","EAE mice spleens; probe set 102149, spleen, I.P. TSA vs vehicle-treated EAE mice",5.8 fold
same,"Fold Change, IgH gene DJC","EAE mice spleens; probe set 102843, spleen, I.P. TSA vs vehicle-treated EAE mice",−3.6 fold
same,"Fold Change, Snail homolog","EAE mice spleens; probe set 103830, spleen, I.P. TSA vs vehicle-treated EAE mice",3.0 fold
same,immunosuppression,mouse model,induces immunosuppression
same,"fold change of key genes altered, QRT-PCR","CNS tissue from EAE mice; CNS and spleen samples, vs vehicle-treated EAE animals, n=3 per group",> 1.5 fold
same,Gpx1 mRNA by QRT-PCR,"CNS tissue from EAE mice; CNS, TSA-treated EAE mice",elevated
same,Ifna2 mRNA by QRT-PCR,"CNS tissue from EAE mice; CNS, TSA-treated EAE mice",elevated
same,Mug mRNA by QRT-PCR,"CNS tissue from EAE mice; CNS, TSA-treated EAE mice",downregulated
same,Tmpo mRNA by QRT-PCR,"CNS tissue from EAE mice; CNS, TSA-treated EAE mice",downregulated
same,apoptosis inducing factor (Aif) mRNA by QRT-PCR,"CNS tissue from EAE mice; CNS, TSA-treated EAE mice",downregulation
same,caspase 2 (casp2) mRNA by QRT-PCR,"CNS tissue from EAE mice; CNS, TSA-treated EAE mice",downregulation
same,dopamine β hydroxylase (Dbh) mRNA by QRT-PCR,"CNS tissue from EAE mice; CNS, TSA-treated EAE mice",upregulation
same,sodium channel Nav1.2 mRNA by QRT-PCR,"CNS tissue from EAE mice; CNS, TSA-treated EAE mice",upregulation
same,thromboxane A2 receptor (Tbxa2r) mRNA by QRT-PCR,"CNS tissue from EAE mice; CNS, TSA-treated EAE mice",downregulated

# From patent US20040077591A1, “Histone deacetylase inhibitors for the treatment of multiple sclerosis, amyotrophic lateral sclerosis and Alzheimer's Disease” (The Brigham and Women's Hospital, Inc., priority 2002, published 2004)
